Results on one molecule are retold here after patent US8338420B1, “Treatment of Parkinson's disease and enhancement of dopamine signal using PDE 10 inhibitor” (Mitsubishi Tanabe Pharma Corporation, priority 2002, dated 2012).

This test concerns the target T1, PDE6 (Bos taurus, UniProt P11541+P23439).
T1 construct: tissue Tokyo Shibaura Zoki; host or cells: bovine retina, rod outer segments, gel filtration, then limited trypsin treatment
T1 sequence (P11541 2-856 limits assumed): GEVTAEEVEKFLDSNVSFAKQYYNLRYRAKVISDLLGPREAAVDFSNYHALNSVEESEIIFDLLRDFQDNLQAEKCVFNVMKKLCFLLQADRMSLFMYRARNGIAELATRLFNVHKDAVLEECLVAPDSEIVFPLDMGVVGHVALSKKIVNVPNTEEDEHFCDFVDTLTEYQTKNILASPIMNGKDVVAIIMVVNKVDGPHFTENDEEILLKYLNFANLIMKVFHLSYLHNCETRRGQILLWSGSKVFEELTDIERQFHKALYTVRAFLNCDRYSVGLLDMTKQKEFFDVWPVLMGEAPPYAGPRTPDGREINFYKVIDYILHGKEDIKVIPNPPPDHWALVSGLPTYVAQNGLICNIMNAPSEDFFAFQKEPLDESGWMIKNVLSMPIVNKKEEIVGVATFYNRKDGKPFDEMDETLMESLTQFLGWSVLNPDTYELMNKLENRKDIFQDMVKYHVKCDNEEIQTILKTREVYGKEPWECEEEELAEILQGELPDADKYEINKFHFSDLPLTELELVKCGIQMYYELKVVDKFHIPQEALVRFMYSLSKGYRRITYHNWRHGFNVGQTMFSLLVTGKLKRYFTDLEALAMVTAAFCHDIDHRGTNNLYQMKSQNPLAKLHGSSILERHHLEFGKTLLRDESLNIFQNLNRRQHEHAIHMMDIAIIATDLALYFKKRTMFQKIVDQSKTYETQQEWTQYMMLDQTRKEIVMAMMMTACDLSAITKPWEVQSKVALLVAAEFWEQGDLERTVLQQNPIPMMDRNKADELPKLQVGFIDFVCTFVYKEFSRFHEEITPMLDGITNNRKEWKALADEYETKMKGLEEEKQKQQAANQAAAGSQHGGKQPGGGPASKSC
T1 sequence (P23439 2-850 limits assumed): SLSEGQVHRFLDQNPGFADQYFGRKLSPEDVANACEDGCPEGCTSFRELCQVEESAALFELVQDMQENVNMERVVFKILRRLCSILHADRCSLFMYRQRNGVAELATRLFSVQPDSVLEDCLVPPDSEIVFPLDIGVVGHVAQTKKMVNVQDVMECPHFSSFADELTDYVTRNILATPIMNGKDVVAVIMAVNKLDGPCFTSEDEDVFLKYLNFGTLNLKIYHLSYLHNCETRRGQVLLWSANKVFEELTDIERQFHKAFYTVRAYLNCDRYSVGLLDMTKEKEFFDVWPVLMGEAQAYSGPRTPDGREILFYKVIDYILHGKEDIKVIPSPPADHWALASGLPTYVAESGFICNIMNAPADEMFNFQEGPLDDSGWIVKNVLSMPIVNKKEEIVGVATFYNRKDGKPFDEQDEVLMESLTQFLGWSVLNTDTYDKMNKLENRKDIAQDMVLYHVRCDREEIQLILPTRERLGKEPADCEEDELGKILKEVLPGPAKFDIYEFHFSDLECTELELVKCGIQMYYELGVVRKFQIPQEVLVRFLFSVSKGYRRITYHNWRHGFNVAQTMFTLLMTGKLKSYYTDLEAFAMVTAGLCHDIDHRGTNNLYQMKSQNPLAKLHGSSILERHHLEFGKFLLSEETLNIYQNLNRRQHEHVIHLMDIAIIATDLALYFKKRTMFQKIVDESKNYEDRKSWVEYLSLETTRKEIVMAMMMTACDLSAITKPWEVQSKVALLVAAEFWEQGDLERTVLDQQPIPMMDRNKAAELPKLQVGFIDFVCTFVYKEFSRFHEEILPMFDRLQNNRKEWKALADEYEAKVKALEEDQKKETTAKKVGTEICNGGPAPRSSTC
In words: PDE assay, trypsin-activated PDE6 from bovine retina. It counts as biochemical. The following applies: substrate about 12 nM [3H]-cGMP and 10 μM cGMP. The procedure: From the bovine eyeball, purchased from Tokyo Shibaura Zoki, co., Ltd., retina (pale red colored) which is present as a membrane on the pigmented layer was collected and stored at −70° C.
To buffer A [16 mM MOPS-NaOH, pH7.5, 1.6 mM dithiothreitol, 8 mM magnesium chloride, 96 mM potassium chloride, 48 mM sodium chloride, 0.16 mM phenylmethylsulfonyl fluoride, 10 μM pepstatin A, 10 μM leupeptin] (20 ml), sucrose (6 g) was dissolved. Added thereto was the above-mentioned retina (about 7 g), and the mixture was stirred for 30 minutes while cutting the retina by scissors. The mixture was applied to centrifugation at 2000 rpm, at 4° C. for 5 minutes and the supernatant was collected. To the resultant residue was added buffer B[10 mM MOPS, pH7.5, 1 mM dithiothreitol, 5 mM magnesium chloride, 60 mM potassium chloride, 30 mM sodium chloride, 0.1 mM phenylmethylsulfonyl fluoride, 10 μM pepstatin A, 10 μM leupeptin] (40 ml), and the mixture was stirred by rolling several times. This was applied to centrifugation and the resultant supernatant was combined with the above obtained supernatant. This is further centrifuged at 7000 rpm, at 4° C., for 5 minutes, and the precipitates were obtained as crude rod outer segment (ROS). […]
Further, PDE assay was carried out using the above-eluted fractions as an enzyme solution, and cGMP-hydrolyzing activity was measured. […]

The molecule `COc1ccc(-c2cc(N3CCCC3)nc(/C=C/c3nc(-n4ccnc4)c4ccccc4n3)n2)cc1OC` [Compound A, 2-{(E)-2-[4-(1-imidazolyl)-quinazolin-2-yl]}ethenyl-4-(3,4-dimethoxy)phenyl-6-(pyrrolidin-1-yl)pyrimidine] returned an IC50 of 0.29 µM. This lies in the sub-micromolar range.
